Data: patent US20090238808A1, “Process for the identification of novel enzyme interacting compounds” (priority 2005, published 2009)

What was measured:
Assay in all cases: In-lysate competition binding with kinobeads, Jurkat lysate, iTRAQ MS, relative intensity of identified proteins (Table 22)
Conditions in all cases: DMSO control = 1.0
[1] = molecular target: T1, proteins captured on kinobeads from Jurkat cell lysate (Homo sapiens, UniProt O14965)
T1 construct: endogenous in cells; host or cells: Jurkat clone E6-1 lysate
T1 sequence (O14965 whole entry): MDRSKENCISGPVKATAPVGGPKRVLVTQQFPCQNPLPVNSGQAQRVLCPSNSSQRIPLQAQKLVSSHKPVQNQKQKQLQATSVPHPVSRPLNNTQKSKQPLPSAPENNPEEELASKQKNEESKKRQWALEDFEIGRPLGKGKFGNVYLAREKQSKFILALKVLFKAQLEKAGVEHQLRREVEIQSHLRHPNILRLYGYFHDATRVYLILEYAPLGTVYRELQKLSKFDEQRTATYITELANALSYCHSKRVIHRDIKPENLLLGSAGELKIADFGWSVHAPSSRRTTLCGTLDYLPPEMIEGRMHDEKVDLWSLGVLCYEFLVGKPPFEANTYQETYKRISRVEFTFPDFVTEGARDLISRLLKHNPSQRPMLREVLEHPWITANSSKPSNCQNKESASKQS
Protocol: (§1) This example illustrates competition binding in cell lysates (see particularly the third aspect of the invention). A test compound, Bisindolylmaleimide VIII (Bis VIII, a well known kinase inhibitor; Davies et al., 2000. Specificity and mechanism of action of some commonly used protein kinase inhibitors. Biochemical Journal 351 (Pt 1): 95-105) was added to a cell lysate thereby allowing the test compound to bind to the target proteins in the lysate. Then the lysate was contacted with the kinobeads affinity matrix to capture remaining free target proteins. The proteins bound to the kinobeads matrix were then eluted with detergent-containing buffer, separated on a SDS-polyacryamide gel and analyzed by immunodetection (Western blots) or mass spectrometry detection.
(§2) For the quantitative detection of proteins by mass spectrometry proteins were eluted from the affinity matrix and subsequently separated by SDS-Polyacrylamide gel elecrophoresis. Suitable gel areas were cut out and subjected to in-gel proteolytic digestion with trypsin.
(§3) Four tryptic digest samples (corresponding to three different Bis VIII concentrations in the lysate and one DMSO control) were labeled with ITRAQ reagents and the combined samples were analyzed in a single LC-MS/MS mass spectrometry analysis followed by peak quantification in the MS/MS spectrum (Ross et al., 2004. Multiplexed protein quantitation in Saccharomyces cerevisiae using amine-reactive isobaric tagging reagents. Mol. Cell. Proteomics 3(12): 1154-1169). […] Binding curves for individual kinases are shown (FIG. 5). The relative intensity 50 (RI50) values representing the affinity of kinase-compound pairs are similar to IC50 values reported by kinase enzyme assays (Davies et al., 2000. Specificity and mechanism of action of some commonly used protein kinase inhibitors. Biochemical Journal 351 (Pt 1): 95-105).
(§4) Aliqots of Jurkat lysate (10 mg protein) were incubated with different Bis VIII concentrations for one hour at 4° C. (0.025 μM, 0.074 μM, 0.22 μM, 0.67 μM, 2.0 μM and 6.0 μM final concentration of Bis VIII). To this end Bis VIII solutions were prepared in 100% DMSO as solvent that corresponded to 200 fold desired final Bis VIII concentration (Bis VIII from Alexis Biochemicals cat. number ALX 270-056). Five μl of these solutions were added to 1 ml of lysate resulting in the indicated final concentrations. For a control experiment 5 μl of DMSO without Bis VIII were used.
(§5) To each preincubated lysate sample 40 μl of kinobeads (see example 1) were added and incubated for one hour at 4° C. During the incubation the tubes were rotated on an end-over-end shaker (Roto Shake Genie, Scientific Industries Inc.). Beads were collected by centrifugation, transfered to Mobicol-columns (MoBiTech 10055) and washed with 10 ml 1×DP buffer containing 0.4% NP40 detergent, followed by a wash with 5 ml 1×DP buffer with 0.2% NP40. To elute the bound proteins, 100 μl 2×SDS sample buffer was added, the column was heated for 30 minutes at 50° C. and the eluate was transferred to a microfuge tube by centrifugation. Proteins were then separated by SDS-Polyacrylamide electrophoresis (SDS-PAGE). The composition and preparation of buffers is described in example 2.
(§6) The peptide extracts of samples treated with different concentrations of the test compound (0.074 μM, 0.22 μM and 0.67 μM Bis VIII) and the solvent control (0.5% DMSO) were treated with different isomers of the isobaric tagging reagent (iTRAQ Reagents Multiplex Kit, part number 4352135, Applied Biosystems, Foster City, Calif., USA). The iTRAQ reagents are a set of multiplexed, amine-specific, stable isotope reagents that can label all peptides in up to four different biological samples enabling simultaneous identification and quantitation of peptides. The iTRAQ reagents were used according to instructions provided by the manufacturer. […]

[2] = molecular target: T2, proteins captured on kinobeads from Jurkat cell lysate (Homo sapiens, UniProt O14976)
T2 construct: endogenous in cells; host or cells: Jurkat clone E6-1 lysate
Protocol: as §1, §2, §3, §4, §5, §6

[3] = molecular target: T3, proteins captured on kinobeads from Jurkat cell lysate (Homo sapiens, UniProt P12931)
T3 construct: endogenous in cells; host or cells: Jurkat clone E6-1 lysate
T3 sequence (P12931 whole entry): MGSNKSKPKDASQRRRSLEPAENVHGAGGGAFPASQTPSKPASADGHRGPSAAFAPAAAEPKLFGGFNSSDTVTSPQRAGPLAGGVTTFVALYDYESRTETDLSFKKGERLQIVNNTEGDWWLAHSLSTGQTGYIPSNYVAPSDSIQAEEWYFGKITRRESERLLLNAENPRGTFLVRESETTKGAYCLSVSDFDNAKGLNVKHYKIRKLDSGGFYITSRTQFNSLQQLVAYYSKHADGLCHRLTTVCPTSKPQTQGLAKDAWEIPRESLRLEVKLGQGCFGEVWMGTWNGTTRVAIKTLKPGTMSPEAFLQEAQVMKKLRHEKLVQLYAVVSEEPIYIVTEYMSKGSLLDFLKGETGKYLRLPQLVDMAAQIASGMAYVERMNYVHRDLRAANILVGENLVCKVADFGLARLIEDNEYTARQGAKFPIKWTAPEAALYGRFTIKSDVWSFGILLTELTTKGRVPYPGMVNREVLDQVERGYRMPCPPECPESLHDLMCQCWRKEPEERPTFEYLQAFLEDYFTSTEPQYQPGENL
Protocol: as §1, §2, §3, §4, §5, §6

[4] = molecular target: T4, proteins captured on kinobeads from Jurkat cell lysate (Homo sapiens, UniProt P16083)
T4 construct: endogenous in cells; host or cells: Jurkat clone E6-1 lysate
T4 sequence (P16083 whole entry): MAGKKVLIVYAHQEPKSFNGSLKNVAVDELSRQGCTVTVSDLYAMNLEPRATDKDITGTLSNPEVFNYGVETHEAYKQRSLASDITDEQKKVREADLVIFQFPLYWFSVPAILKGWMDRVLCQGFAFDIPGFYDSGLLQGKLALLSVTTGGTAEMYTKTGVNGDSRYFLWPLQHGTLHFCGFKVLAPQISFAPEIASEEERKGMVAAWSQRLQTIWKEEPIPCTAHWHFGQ
Protocol: as §1, §2, §3, §4, §5, §6

[5] = molecular target: T5, proteins captured on kinobeads from Jurkat cell lysate (Homo sapiens, UniProt P24941)
T5 construct: endogenous in cells; host or cells: Jurkat clone E6-1 lysate
Protocol: as §1, §2, §3, §4, §5, §6

[6] = molecular target: T6, proteins captured on kinobeads from Jurkat cell lysate (Homo sapiens, UniProt P41240)
T6 construct: endogenous in cells; host or cells: Jurkat clone E6-1 lysate
T6 sequence (P41240 whole entry): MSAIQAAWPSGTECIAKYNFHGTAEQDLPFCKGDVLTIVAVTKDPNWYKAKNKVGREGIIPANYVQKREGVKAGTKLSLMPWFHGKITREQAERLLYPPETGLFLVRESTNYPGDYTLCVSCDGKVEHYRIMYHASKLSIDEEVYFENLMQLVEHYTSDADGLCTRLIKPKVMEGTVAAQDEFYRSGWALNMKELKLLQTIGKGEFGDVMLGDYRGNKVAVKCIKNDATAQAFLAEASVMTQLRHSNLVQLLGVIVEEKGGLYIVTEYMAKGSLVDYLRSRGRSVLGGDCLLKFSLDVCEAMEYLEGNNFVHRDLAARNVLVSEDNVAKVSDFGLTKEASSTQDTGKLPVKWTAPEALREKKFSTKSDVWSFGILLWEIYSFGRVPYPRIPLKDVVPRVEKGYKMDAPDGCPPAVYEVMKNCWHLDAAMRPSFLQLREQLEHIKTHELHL
Protocol: as §1, §2, §3, §4, §5, §6

[7] = molecular target: T7, proteins captured on kinobeads from Jurkat cell lysate (Homo sapiens, UniProt P42684)
T7 construct: endogenous in cells; host or cells: Jurkat clone E6-1 lysate
Protocol: as §1, §2, §3, §4, §5, §6

[8] = molecular target: T8, proteins captured on kinobeads from Jurkat cell lysate (Homo sapiens, UniProt P45984)
T8 construct: endogenous in cells; host or cells: Jurkat clone E6-1 lysate
T8 sequence (P45984 whole entry): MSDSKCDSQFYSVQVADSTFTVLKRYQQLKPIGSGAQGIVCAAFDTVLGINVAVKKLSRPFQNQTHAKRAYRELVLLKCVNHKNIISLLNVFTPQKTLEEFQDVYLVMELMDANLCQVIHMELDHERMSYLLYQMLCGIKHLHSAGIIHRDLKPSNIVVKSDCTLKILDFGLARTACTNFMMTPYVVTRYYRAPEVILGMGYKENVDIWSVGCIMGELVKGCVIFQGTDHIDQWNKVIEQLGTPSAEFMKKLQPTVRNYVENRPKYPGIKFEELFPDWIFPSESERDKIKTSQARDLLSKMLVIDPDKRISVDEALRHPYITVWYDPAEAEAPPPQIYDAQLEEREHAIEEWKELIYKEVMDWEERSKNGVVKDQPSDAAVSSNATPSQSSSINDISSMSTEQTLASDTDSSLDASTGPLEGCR
Protocol: as §1, §2, §3, §4, §5, §6

[9] = molecular target: T9, proteins captured on kinobeads from Jurkat cell lysate (Homo sapiens, UniProt P51451)
T9 construct: endogenous in cells; host or cells: Jurkat clone E6-1 lysate
T9 sequence (P51451 whole entry): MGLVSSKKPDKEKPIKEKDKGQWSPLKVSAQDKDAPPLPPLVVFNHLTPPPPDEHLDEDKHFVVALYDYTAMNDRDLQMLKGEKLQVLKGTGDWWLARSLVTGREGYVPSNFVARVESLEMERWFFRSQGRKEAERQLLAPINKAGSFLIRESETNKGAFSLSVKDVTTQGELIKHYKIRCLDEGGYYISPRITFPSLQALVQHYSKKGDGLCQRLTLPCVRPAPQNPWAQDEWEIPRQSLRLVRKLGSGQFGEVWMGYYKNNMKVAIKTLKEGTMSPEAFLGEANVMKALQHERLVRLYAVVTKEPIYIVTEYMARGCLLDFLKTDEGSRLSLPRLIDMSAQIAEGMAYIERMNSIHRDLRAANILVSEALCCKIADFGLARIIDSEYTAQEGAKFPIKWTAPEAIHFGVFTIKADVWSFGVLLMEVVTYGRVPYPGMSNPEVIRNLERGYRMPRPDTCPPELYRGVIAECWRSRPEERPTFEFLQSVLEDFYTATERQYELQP
Protocol: as §1, §2, §3, §4, §5, §6

[10] = molecular target: T10, proteins captured on kinobeads from Jurkat cell lysate (Homo sapiens, UniProt Q08881)
T10 construct: endogenous in cells; host or cells: Jurkat clone E6-1 lysate
T10 sequence (Q08881 whole entry): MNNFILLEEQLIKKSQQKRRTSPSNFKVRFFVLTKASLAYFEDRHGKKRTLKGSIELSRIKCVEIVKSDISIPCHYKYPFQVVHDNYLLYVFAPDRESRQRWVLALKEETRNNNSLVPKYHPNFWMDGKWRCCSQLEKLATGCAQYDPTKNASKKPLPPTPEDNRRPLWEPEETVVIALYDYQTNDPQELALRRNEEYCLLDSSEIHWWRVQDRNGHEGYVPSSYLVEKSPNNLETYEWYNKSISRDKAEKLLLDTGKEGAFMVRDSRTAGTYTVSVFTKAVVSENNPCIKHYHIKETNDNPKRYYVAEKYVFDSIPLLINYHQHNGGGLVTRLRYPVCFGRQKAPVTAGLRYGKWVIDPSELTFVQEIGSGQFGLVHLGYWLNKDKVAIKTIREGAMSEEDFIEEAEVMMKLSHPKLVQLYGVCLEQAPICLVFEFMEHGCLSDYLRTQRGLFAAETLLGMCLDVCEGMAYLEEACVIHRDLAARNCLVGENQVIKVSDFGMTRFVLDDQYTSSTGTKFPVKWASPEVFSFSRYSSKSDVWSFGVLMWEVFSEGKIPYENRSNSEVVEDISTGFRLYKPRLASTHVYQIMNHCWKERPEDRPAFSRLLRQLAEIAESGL
Protocol: as §1, §2, §3, §4, §5, §6

[11] = molecular target: T11, proteins captured on kinobeads from Jurkat cell lysate (Homo sapiens, UniProt Q13557)
T11 construct: endogenous in cells; host or cells: Jurkat clone E6-1 lysate
T11 sequence (Q13557 whole entry): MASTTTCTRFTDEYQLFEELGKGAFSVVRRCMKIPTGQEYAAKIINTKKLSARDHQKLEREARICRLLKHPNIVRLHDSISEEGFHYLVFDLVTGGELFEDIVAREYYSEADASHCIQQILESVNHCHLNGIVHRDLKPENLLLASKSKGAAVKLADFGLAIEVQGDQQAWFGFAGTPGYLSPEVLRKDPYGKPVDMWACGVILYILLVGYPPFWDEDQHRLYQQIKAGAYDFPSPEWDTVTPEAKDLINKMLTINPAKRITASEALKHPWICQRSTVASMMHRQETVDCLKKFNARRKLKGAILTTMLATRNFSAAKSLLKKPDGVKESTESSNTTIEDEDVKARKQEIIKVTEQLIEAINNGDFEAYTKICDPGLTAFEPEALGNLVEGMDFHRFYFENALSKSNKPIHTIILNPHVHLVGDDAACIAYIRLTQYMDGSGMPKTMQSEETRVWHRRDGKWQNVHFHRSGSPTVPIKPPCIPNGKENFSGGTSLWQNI
Protocol: as §1, §2, §3, §4, §5, §6

[12] = molecular target: T12, proteins captured on kinobeads from Jurkat cell lysate (Homo sapiens, UniProt Q6PHR2)
T12 construct: endogenous in cells; host or cells: Jurkat clone E6-1 lysate
T12 sequence (Q6PHR2 whole entry): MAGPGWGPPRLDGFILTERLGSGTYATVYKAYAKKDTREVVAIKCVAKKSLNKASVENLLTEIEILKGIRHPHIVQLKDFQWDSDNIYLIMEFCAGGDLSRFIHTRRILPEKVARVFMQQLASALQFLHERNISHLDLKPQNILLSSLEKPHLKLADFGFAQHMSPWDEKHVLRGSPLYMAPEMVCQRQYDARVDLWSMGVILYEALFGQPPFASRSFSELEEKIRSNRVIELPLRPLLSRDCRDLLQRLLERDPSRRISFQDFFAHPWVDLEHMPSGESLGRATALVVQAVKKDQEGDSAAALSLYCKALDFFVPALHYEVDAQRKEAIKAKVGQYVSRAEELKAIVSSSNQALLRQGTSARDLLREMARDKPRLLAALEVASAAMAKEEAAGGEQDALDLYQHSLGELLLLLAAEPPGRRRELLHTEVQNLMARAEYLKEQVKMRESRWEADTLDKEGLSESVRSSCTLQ
Protocol: as §1, §2, §3, §4, §5, §6

[13] = molecular target: T13, proteins captured on kinobeads from Jurkat cell lysate (Homo sapiens, UniProt Q96GD4)
T13 construct: endogenous in cells; host or cells: Jurkat clone E6-1 lysate
Protocol: as §1, §2, §3, §4, §5, §6

[14] = molecular target: T14, proteins captured on kinobeads from Jurkat cell lysate (Homo sapiens, UniProt Q9UHD2)
T14 construct: endogenous in cells; host or cells: Jurkat clone E6-1 lysate
T14 sequence (Q9UHD2 whole entry): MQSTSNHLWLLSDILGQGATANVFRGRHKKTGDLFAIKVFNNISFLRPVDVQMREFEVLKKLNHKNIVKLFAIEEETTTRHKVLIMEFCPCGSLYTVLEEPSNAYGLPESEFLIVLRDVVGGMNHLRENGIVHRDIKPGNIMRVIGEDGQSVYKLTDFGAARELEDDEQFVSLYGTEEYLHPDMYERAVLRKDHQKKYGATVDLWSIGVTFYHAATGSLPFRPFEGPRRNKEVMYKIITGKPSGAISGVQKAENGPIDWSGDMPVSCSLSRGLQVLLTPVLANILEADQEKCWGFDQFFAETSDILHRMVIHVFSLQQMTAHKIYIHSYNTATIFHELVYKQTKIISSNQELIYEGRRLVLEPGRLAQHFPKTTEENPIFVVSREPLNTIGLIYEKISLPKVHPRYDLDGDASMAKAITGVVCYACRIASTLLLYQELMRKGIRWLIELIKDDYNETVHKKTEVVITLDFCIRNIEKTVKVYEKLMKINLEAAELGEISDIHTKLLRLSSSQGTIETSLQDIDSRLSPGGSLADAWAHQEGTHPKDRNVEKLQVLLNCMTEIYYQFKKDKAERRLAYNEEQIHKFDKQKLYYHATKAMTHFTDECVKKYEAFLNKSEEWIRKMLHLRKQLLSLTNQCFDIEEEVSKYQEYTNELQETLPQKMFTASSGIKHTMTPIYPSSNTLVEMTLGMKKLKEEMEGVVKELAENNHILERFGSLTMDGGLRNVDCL
Protocol: as §1, §2, §3, §4, §5, §6

[15] = tested on: proteins captured on kinobeads from Jurkat cell lysate; design: species or system human
Protocol: as §1, §2, §3, §4, §5, §6

## Cn1cc(C2=C(c3cn(CCCN)c4ccccc34)C(=O)NC2=O)c2ccccc21 [Bis VIII, Bisindolylmaleimide VIII]
[1]; 0.074 uM in lysate
  Relative Intensity, AurA (STK6): 0.90
[1]; 0.67 uM in lysate
  Relative Intensity, AurA (STK6): 0.87
[2]; 0.074 uM in lysate
  Relative Intensity, GAK: 0.92
[2]; 0.67 uM in lysate
  Relative Intensity, GAK: 0.97
[3]; 0.074 uM in lysate
  Relative Intensity, SRC: 0.93
[3]; 0.67 uM in lysate
  Relative Intensity, SRC: 0.94
[4]; 0.074 uM in lysate
  Relative Intensity, NQO2: 0.87
[4]; 0.67 uM in lysate
  Relative Intensity, NQO2: 0.78
[5]; 0.074 uM in lysate
  Relative Intensity, CDK2: 0.89
[5]; 0.67 uM in lysate
  Relative Intensity, CDK2: 0.65
[6]; 0.074 uM in lysate
  Relative Intensity, CSK: 0.84
[6]; 0.67 uM in lysate
  Relative Intensity, CSK: 0.89
[7]; 0.074 uM in lysate
  Relative Intensity, ARG (ABL2): 0.96
[7]; 0.67 uM in lysate
  Relative Intensity, ARG (ABL2): 0.91
[8]; 0.074 uM in lysate
  Relative Intensity, JNK2 (MAPK9): 0.97
[8]; 0.67 uM in lysate
  Relative Intensity, JNK2 (MAPK9): 1.04
[9]; 0.074 uM in lysate
  Relative Intensity, BLK: 0.90
[9]; 0.67 uM in lysate
  Relative Intensity, BLK: 0.83
[10]; 0.074 uM in lysate
  Relative Intensity, ITK: 0.80
[10]; 0.67 uM in lysate
  Relative Intensity, ITK: 0.91
[11]; 0.074 uM in lysate
  Relative Intensity, CaMK2d: 0.91
[11]; 0.67 uM in lysate
  Relative Intensity, CaMK2d: 0.88
[12]; 0.074 uM in lysate
  Relative Intensity, ULK3: 0.95
[12]; 0.67 uM in lysate
  Relative Intensity, ULK3: 1.15
[13]; 0.074 uM in lysate
  Relative Intensity, AurB (AURKB): 0.95
[13]; 0.67 uM in lysate
  Relative Intensity, AurB (AURKB): 0.97
[14]; 0.074 uM in lysate
  Relative Intensity, TBK1: 1.05
[14]; 0.67 uM in lysate
  Relative Intensity, TBK1: 1.14
[15]; 0.074 uM in lysate
  Relative Intensity, Abl1: 0.81
[15]; 0.67 uM in lysate
  Relative Intensity, Abl1: 1.03
